Reference: patent US8148391B2 (Cephalon, Inc., priority 2006, dated 2012)
Like-named read-outs stand apart in the source and are kept apart here.

How the values were obtained:
[1] = target: T1, c-Met (cytoplasmic domain) (Homo sapiens, UniProt P08581); assay: c-Met Kinase Assay (same methods as for ALK, with modifications); assay type: biochemical
T1 construct: 10 ng/mL c-Met (cytoplasmic domain, Invitrogen Corporation #PV3143); purchased Invitrogen Corporation PV3143
In short: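 Europium-labeled PT66 antibody (Eu-N1) detects substrate phosphorylation on wells coated with phospholipase C-γ at 10 μg/mL. The kinase, the cytoplasmic domain of c-Met at 10 ng/mL, starts the reaction, which proceeds 15 minutes at 37° C.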

[2] = target: T2, baculovirus-expressed ALK (Homo sapiens, UniProt Q9UM73); assay: ALK Kinase Assay (ELISA-type, time-resolved fluorescence); assay type: biochemical
T2 construct: host or cells: baculovirus expression system
T2 sequence (Q9UM73 19-1620): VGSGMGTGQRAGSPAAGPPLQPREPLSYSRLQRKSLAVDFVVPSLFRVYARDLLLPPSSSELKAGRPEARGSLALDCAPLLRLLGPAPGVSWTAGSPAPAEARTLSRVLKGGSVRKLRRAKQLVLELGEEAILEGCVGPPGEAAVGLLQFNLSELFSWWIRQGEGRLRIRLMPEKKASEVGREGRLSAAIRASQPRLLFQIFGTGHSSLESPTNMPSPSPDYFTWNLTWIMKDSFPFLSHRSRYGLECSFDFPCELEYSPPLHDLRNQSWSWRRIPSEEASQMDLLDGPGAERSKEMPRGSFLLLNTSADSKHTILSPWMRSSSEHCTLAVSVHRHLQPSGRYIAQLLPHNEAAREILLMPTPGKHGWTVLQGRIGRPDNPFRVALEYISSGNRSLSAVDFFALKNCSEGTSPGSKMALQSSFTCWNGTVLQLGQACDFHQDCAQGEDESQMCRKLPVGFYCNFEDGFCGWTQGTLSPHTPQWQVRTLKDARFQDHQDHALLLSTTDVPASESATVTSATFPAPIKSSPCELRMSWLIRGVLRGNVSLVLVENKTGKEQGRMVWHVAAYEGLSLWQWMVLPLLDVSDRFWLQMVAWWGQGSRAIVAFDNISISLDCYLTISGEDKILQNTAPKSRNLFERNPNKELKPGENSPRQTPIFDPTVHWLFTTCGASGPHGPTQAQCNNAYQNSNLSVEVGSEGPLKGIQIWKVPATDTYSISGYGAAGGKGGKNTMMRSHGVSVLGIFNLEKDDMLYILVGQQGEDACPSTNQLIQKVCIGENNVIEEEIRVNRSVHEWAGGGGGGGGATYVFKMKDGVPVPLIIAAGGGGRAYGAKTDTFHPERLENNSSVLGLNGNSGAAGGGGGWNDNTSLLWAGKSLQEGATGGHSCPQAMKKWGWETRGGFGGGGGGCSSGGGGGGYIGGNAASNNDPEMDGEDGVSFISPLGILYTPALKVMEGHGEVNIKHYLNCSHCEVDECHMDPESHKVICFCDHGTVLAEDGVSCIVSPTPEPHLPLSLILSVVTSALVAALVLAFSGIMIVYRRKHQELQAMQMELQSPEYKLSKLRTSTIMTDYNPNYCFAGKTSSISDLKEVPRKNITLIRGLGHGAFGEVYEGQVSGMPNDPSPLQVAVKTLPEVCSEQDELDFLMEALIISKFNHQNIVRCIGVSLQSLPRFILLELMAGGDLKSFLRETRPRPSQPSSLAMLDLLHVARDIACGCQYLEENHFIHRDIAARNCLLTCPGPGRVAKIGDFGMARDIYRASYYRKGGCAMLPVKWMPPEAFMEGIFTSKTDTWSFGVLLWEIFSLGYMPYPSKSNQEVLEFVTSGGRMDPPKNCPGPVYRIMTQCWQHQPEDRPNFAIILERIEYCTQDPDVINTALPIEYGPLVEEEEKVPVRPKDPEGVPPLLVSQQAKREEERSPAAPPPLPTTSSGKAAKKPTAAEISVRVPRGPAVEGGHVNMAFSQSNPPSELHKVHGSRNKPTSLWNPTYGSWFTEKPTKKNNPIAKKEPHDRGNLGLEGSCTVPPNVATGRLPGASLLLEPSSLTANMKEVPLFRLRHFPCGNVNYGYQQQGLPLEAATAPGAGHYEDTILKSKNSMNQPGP
In short: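 Plates coated with phospholipase C-γ substrate (10 μg/mL in TBS); reaction started with 30 ng/ml ALK and run 15 min at 37° C. Phosphorylated substrate detected with Eu-N1-labeled PT66 antibody. IC50 from sigmoidal variable-slope fit of percent inhibition vs log concentration.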

[3] = c-Met kinase inhibition, 1 μM ATP, read-out: cMet Activity
[4] = ALK kinase inhibition, 1 μM ATP, read-out: ALK Activity
[5] = 1 μM ATP (Km level), read-out: cMet Activity (c-Met Kinase Inhibition, IC50)
[6] = 1 μM ATP (Km level), read-out: ALK Activity (ALK Kinase Inhibition, IC50)
[7] = 1 μM ATP (Km level), 10 ng/mL c-Met, read-out: cMet Activity (c-Met kinase inhibition, IC50 class)
[8] = 1 μM ATP (Km level), 30 ng/ml ALK, 37° C., 15 minutes, read-out: ALK Activity (ALK kinase inhibition, IC50 class)
[9] = c-Met kinase inhibition, 1 μM ATP (Km level), read-out: cMet Activity
[10] = ALK kinase inhibition, 1 μM ATP (Km level), read-out: ALK Activity

T1 sequence (P08581 956-1390 limits assumed): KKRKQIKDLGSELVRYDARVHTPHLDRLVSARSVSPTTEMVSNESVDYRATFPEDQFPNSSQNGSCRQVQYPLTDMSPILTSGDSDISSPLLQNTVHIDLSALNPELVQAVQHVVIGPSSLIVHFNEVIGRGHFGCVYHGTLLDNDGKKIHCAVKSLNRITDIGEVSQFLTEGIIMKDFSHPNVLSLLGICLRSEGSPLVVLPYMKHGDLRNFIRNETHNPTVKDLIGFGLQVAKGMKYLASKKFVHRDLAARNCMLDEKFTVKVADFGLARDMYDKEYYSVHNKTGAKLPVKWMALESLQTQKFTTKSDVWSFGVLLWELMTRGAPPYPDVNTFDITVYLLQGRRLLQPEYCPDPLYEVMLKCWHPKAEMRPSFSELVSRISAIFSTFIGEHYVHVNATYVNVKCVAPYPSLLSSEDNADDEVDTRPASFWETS

An IC50 [1, 3] of less than 100 nM and an IC50 [2, 4] of 1000 to 10000 nM were found for CNC(=O)c1sc(C)c(C)c1Nc1nc(Nc2ccc3c(c2)CCOC(=O)N3C)ncc1Cl [Example 1772, 5-Methyl-3-[5-chloro-2-(5-methyl-6-oxo-5,6,8,9-tetrahydro-7-oxa-5-aza-benzocyclohepten-2-ylamino)-pyrimidin-4-ylamino]-4-methyl-thiophene-2-carboxylic acid methylamide] in this work.

An IC50 [1, 5] greater than 10000 nM and an IC50 [2, 6] of 100 to 1000 nM were found for CCN1C(=O)CCCc2c1ccc(Nc1ncc(Cl)c(NC3C4C=CC(C4)C3C(=O)N(C)C)n1)c2OC (stereo not drawn) [Example 602, (2-exo-3-exo)-3-[5-Chloro-2-(1-ethyl-6-methoxy-2-oxo-2,3,4,5-tetrahydro-1H-benzo[b]azepin-7-ylamino)-pyrimidin-4-ylamino]-bicyclo[2.2.1]hept-5-ene-2-carboxylic acid dimethylamide] in this work.

An IC50 [1, 7] greater than 10000 nM and an IC50 [2, 8] of 1000 to 10000 nM were found for COc1ccc2c(c1Nc1ncc(Cl)c(N[C@@H]3CCCC[C@H]3NS(C)(=O)=O)n1)CCC(NCC(F)F)CC2 (single isomer, unassigned) [Example 1075] in this work.

An IC50 [1, 7] greater than 10000 nM and an IC50 [2, 8] of less than 100 nM were found for CCN1C(=O)C(NC(=O)C(F)(F)F)CCc2c1ccc(Nc1ncc(Cl)c(Nc3ccccc3S(=O)(=O)C(C)C)n1)c2OC (stereo not shown) [Example 1333, N-(7-{5-Chloro-4-[2-(propane-2-sulfonyl)-phenylamino]-pyrimidin-2-ylamino}-1-ethyl-6-methoxy-2-oxo-2,3,4,5-tetrahydro-1H-benzo[b]azepin-3-yl)-2,2,2-trifluoro-acetamide] in this work.

An IC50 [1, 9] of 1000 to 10000 nM and an IC50 [2, 10] of less than 100 nM were found for CN1CCN(CC2CC2)Cc2ccc(Nc3ncc(Cl)c(N[C@@H]4CCCC[C@H]4NS(C)(=O)=O)n3)cc21 [Example 479, N-{(1R,2R)-2-[5-Chloro-2-(4-cyclopropylmethyl-1-methyl-2,3,4,5-tetrahydro-1H-benzo[e][1,4]diazepin-8-ylamino)-pyrimidin-4-ylamino]-cyclohexyl}-methanesulfonamide] in this work.

An IC50 [1, 9] of 100 to 1000 nM and an IC50 [2, 10] greater than 10000 nM were found for CNC(=O)c1cccc(C)c1Nc1nc(Nc2ccc3c(c2)C(=O)NCCC3)ncc1Cl [Example 401, 2-[5-Chloro-2-(1-oxo-2,3,4,5-tetrahydro-1H-benzo[c]azepin-8-ylamino)-pyrimidin-4-ylamino]-3,N-dimethyl-benzamide] in this work.

An IC50 [1, 5] greater than 10000 nM and an IC50 [2, 6] of less than 100 nM were found for CCN(CCO)Cc1cc(Nc2nc(Nc3cc4c(cc3OC)CCN(CC(=O)N(C)C)CC4)ncc2Cl)ccc1F [Example 735, 2-{7-[5-Chloro-4-(3-{[ethyl-(2-hydroxy-ethyl)-amino]-methyl}-4-fluoro-phenylamino)-pyrimidin-2-ylamino]-8-methoxy-1,2,4,5-tetrahydro-benzo[d]azepin-3-yl}-N,N-dimethyl-acetamide] in this work.

An IC50 [1, 3] greater than 10000 nM and an IC50 [2, 4] of less than 100 nM were found for COCCOC(=O)c1ccccc1Nc1nc(Nc2cc3c(cc2OC)CCN(CC(C)O)CC3)ncc1Cl (stereo not shown) [Example 1550, 2-{5-Chloro-2-[3-(2-hydroxy-propyl)-8-methoxy-2,3,4,5-tetrahydro-1H-3-benzazepin-7-ylamino]-pyrimidin-4-ylamino}-benzoic acid 2-methoxy-ethyl ester] in this work.

An IC50 [1, 9] of less than 100 nM and an IC50 [2, 10] of less than 100 nM were found for CNC(=O)c1ccccc1Nc1nc(Nc2ccc3c(c2)NCCN(C)C3=O)ncc1Cl [Example 412, 2-[5-Chloro-2-(4-methyl-5-oxo-2,3,4,5-tetrahydro-1H-benzo[e][1,4]diazepin-8-ylamino)-pyrimidin-4-ylamino]-N-methylbenzamide] in this work.

An IC50 [1, 7] of 100 to 1000 nM and an IC50 [2, 8] of 100 to 1000 nM were found for C#CCNC(=O)c1cccc(F)c1Nc1nc(Nc2ccc3c(c2)OCCCN3C(=O)OC(C)C)ncc1Cl [Example 1433, 3-[5-Chloro-4-(2-fluoro-6-prop-2-ynylcarbamoyl-phenylamino)-pyrimidin-2-ylamino]-7,8-dihydro-6H-5-oxa-9-aza-benzocycloheptene-9-carboxylic acid isopropyl ester] in this work.

An IC50 [1, 5] greater than 10000 nM and an IC50 [2, 6] of less than 100 nM were found for COc1cc2c(cc1Nc1ncc(F)c(Nc3ccc(N4CCOCC4)cc3OC)n1)CCN(CC(=O)N(C)C)CC2 [Example 808, 2-{7-[5-Fluoro-4-(2-methoxy-4-morpholin-4-yl-phenylamino)-pyrimidin-2-ylamino]-8-methoxy-1,2,4,5-tetrahydro-benzo[d]azepin-3-yl}-N,N-dimethyl-acetamide] in this work.

An IC50 [1, 3] of 100 to 1000 nM and an IC50 [2, 4] of less than 100 nM were found for CCN1CCNC(=O)c2ccc(Nc3ncc(Cl)c(Nc4ccccc4-c4nccn4C)n3)cc21 [Example 1453, 8-{5-Chloro-4-[2-(1-methyl-1H-imidazol-2-yl)-phenylamino]-pyrimidin-2-ylamino}-1-ethyl-1,2,3,4-tetrahydro-benzo[e][1,4]diazepin-5-one] in this work.

An IC50 [1, 5] of 1000 to 10000 nM and an IC50 [2, 6] of less than 100 nM were found for COCCN1CCSc2ccc(Nc3ncc(Cl)c(N[C@@H]4CCCC[C@H]4NS(C)(=O)=O)n3)cc2C1 [Example 521, N-((1R,2R)-2-{5-Chloro-2-[8-(2-methoxy-ethyl)-6,7,8,9-tetrahydro-5-thia-8-aza-benzocyclohepten-2-ylamino]pyrimidin-4-ylamino}-cyclohexyl)-methanesulfonamide] in this work.

An IC50 [1, 3] of 100 to 1000 nM and an IC50 [2, 4] of 1000 to 10000 nM were found for CNC(=O)c1scc(C)c1Nc1nc(Nc2ccc3c(c2)-c2nccn2CCC3)ncc1Cl [Example 1846, 3-[5-Chloro-2-(5,6-dihydro-4H-1,3a-diaza-benzo[e]azulen-9-ylamino)-pyrimidin-4-ylamino]-4-methyl-thiophene-2-carboxylic acid methylamide] in this work.

An IC50 [1, 9] of 100 to 1000 nM and an IC50 [2, 10] of less than 100 nM were found for COCCN1CCc2ccc(Nc3ncc(Cl)c(N[C@@H]4CCCC[C@H]4NC(=O)C(F)(F)F)n3)cc2CC1 [Example 450, N-((1R,2R)-2-{5-Chloro-2-[3-(2-methoxy-ethyl)-2,3,4,5-tetrahydro-1H-benzo[d]azepin-7-ylamino]-pyrimidin-4-ylamino}-cyclohexyl)-2,2,2-trifluoro-acetamide] in this work.

An IC50 [1, 7] greater than 10000 nM and an IC50 [2, 8] of less than 100 nM were found for COc1cc2c(cc1Nc1ncc(Cl)c(N[C@H]3[C@@H](C(N)=O)[C@@H]4C=C[C@H]3C4)n1)CCC(NCC(F)F)CC2 (single isomer, unassigned) [Example 1053] in this work.

An IC50 [1, 5] of less than 100 nM and an IC50 [2, 6] of 100 to 1000 nM were found for CNC(=O)c1cccc(C)c1Nc1nc(Nc2ccc3c(c2)CCN(CCOC)CC3)ncc1C(F)(F)F [Example 922, 2-{2-[3-(2-Methoxyethyl)-2,3,4,5-tetrahydro-1H-benzo[d]azepin-7-ylamino]-5-trifluoromethylpyrimidin-4-ylamino}-3,N-dimethylbenzamide] in this work.

An IC50 [1, 3] of less than 100 nM and an IC50 [2, 4] of less than 100 nM were found for CNC(=O)c1cccc(F)c1Nc1nc(Nc2ccc3c(c2)N(CCN(C)C)CCCC3(C)C)ncc1Cl [Example 1638, 2-{5-Chloro-2-[1-(2-dimethylamino-ethyl)-5,5-dimethyl-2,3,4,5-tetrahydro-1H-benzo[b]azepin-8-ylamino]-pyrimidin-4-ylamino}-3-fluoro-N-methyl-benzamide] in this work.

An IC50 [1, 7] greater than 10000 nM and an IC50 [2, 8] of less than 100 nM were found for COc1cc2c(cc1Nc1ncc(Cl)c(Nc3ccc(N4CCOCC4)cc3OC)n1)CCN(CC(=O)N1CCCC1)CC2 [Example 1155, 2-{7-[5-Chloro-4-(2-methoxy-4-morpholin-4-yl-phenylamino)-pyrimidin-2-ylamino]-8-methoxy-1,2,4,5-tetrahydro-benzo[d]azepin-3-yl}-1-pyrrolidin-1-yl-ethanone] in this work.

An IC50 [1, 5] greater than 10000 nM and an IC50 [2, 6] of less than 100 nM were found for COc1cc2c(cc1Nc1ncc(Cl)c(NC3(CC(N)=O)CCCCC3)n1)CCN(CCO)CC2 [Example 849, 2-(1-{5-Chloro-2-[3-(2-hydroxy-ethyl)-8-methoxy-2,3,4,5-tetrahydro-1H-benzo[d]azepin-7-ylamino]-pyrimidin-4-ylamino}-cyclohexyl)-acetamide] in this work.

An IC50 [1, 5] greater than 10000 nM and an IC50 [2, 6] of less than 100 nM were found for CNC(=O)CN1CCc2cc(Nc3ncc(F)c(Nc4ccc(N5CCN(C)CC5)cc4OC)n3)c(OC)cc2CC1 [Example 797, 2-(7-{5-Fluoro-4-[2-methoxy-4-(4-methyl-piperazin-1-yl)-phenylamino]-pyrimidin-2-ylamino}-8-methoxy-1,2,4,5-tetrahydro-benzo[d]azepin-3-yl)-N-methyl-acetamide] in this work.

An IC50 [1, 3] of 100 to 1000 nM and an IC50 [2, 4] of less than 100 nM were found for COc1cc2c(cc1Nc1ncc(Cl)c(Nc3ccccc3S(=O)(=O)N3CC[C@@H](O)C3)n1)CCN(C[C@H](C)O)CC2 [Example 1554, (R)-1-(2-{5-Chloro-2-[3-((S)-2-hydroxy-propyl)-8-methoxy-2,3,4,5-tetrahydro-1H-3-benzazepin-7-ylamino]-pyrimidin-4-ylamino}-benzenesulfonyl)-pyrrolidin-3-ol] in this work.

An IC50 [1, 7] greater than 10000 nM and an IC50 [2, 8] of less than 100 nM were found for COc1cc2c(cc1Nc1ncc(Cl)c(Nc3ccc(N(C)C)cc3OC)n1)CCN(Cc1nccn1C)CC2 [Example 1173, 5-Chloro-N*4*-(4-dimethylamino-2-methoxy-phenyl)-N*2*-[8-methoxy-3-(1-methyl-1H-imidazol-2-ylmethyl)-2,3,4,5-tetrahydro-1H-benzo[d]azepin-7-yl]-pyrimidine-2,4-diamine] in this work.
